Experimental data published in ChEMBL document CHEMBL1201862, “PubChem BioAssay data set” (2004).
Blank lines part the entries; values can stand above or below the compound they belong to. Activity calls are given as the source filed them.

Assays:
[1] = biological target: Matrix metalloproteinase-14 (Homo sapiens, UniProt P50281); experiment: Dose Response confirmation of uHTS hits for a small molecule inhibitors of MT1-MMP activation in a fluorescence assay set 1.; type: functional
[2] = biological target: Potassium voltage-gated channel subfamily KQT member 2 (Rattus norvegicus, UniProt O88943); experiment: blockers of KCNQ2 channel current – cell-based, automated electrophysiology, set II, rat KCNQ2, dose response (AID 588637); type: functional
Sequence of Potassium voltage-gated channel subfamily KQT member 2 (O88943 whole entry): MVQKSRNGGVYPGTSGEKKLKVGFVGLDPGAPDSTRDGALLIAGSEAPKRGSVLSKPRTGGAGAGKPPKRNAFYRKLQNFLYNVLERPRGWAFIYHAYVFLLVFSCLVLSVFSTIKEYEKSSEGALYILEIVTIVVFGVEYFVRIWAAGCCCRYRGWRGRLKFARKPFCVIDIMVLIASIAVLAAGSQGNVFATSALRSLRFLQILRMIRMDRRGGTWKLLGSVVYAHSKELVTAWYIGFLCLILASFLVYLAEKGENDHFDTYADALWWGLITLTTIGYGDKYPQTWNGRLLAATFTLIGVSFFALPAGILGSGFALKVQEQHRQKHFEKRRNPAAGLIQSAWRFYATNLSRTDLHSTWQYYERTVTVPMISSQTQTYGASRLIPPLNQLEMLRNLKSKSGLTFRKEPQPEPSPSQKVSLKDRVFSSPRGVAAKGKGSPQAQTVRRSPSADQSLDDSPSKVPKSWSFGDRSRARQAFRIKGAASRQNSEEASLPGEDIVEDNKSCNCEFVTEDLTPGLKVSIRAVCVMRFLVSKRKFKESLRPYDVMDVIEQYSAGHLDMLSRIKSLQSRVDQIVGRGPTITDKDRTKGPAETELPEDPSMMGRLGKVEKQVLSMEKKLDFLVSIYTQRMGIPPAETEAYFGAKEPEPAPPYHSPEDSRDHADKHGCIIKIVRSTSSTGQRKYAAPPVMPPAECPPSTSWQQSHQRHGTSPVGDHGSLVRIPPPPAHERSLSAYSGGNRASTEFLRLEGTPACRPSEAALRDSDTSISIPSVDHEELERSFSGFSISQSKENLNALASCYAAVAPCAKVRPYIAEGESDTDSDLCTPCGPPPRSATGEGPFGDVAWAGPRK

[3] = biological target: Tyrosine-protein phosphatase non-receptor type 11 (Homo sapiens, UniProt Q06124); experiment: PTPN11 enzyme inhibitors – biochemical, selectivity assay for STEP inhibitor project, dose response (AID 602367); type: functional; conditions: read-out: IC50_Mean
[4] = biological target: Tyrosine-protein phosphatase non-receptor type 5 (Homo sapiens, UniProt P54829); experiment: PTPN5 enzyme inhibition – biochemical, fluorescence intensity, uHTS hits, confirmation (AID 602372); type: functional; conditions: read-out: IC50_Mean
Sequence of Tyrosine-protein phosphatase non-receptor type 5 (P54829 whole entry): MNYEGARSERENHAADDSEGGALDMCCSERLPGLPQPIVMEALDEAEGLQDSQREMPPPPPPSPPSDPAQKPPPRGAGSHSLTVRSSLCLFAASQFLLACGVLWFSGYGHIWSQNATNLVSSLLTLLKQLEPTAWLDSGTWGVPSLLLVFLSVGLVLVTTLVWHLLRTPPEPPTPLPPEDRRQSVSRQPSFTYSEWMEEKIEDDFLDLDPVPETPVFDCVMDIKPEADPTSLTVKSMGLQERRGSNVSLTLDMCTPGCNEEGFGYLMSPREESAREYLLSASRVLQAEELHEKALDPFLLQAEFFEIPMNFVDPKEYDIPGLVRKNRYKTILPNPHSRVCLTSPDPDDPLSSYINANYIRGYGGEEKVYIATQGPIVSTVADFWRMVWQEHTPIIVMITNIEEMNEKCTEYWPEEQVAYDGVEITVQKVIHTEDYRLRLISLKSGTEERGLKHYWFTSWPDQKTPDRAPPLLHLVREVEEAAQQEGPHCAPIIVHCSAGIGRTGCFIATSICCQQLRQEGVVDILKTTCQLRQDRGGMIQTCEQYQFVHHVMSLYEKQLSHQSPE

[5] = biological target: Dual specificity protein phosphatase 3 (Homo sapiens, UniProt P51452); experiment: VHR phosphatase inhibition, dose response, selectivity assay for STEP inhibitor project, biochemical (AID 602374); type: functional; conditions: read-out: IC50_Mean
Sequence of Dual specificity protein phosphatase 3 (P51452 whole entry): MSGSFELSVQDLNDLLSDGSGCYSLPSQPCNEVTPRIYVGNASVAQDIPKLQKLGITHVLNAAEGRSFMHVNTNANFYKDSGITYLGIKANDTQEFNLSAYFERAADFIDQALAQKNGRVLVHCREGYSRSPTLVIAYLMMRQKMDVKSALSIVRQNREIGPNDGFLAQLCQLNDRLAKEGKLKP

[6] = biological target: T1, Tyrosine-protein phosphatase non-receptor type 22 (Homo sapiens, UniProt Q9Y2R2); experiment: lymphoid phosphatase LYP inhibitors – biochemical, selectivity assay for STEP inhibitor project, dose response (AID 624241); type: functional
T1 sequence (Q9Y2R2 whole entry): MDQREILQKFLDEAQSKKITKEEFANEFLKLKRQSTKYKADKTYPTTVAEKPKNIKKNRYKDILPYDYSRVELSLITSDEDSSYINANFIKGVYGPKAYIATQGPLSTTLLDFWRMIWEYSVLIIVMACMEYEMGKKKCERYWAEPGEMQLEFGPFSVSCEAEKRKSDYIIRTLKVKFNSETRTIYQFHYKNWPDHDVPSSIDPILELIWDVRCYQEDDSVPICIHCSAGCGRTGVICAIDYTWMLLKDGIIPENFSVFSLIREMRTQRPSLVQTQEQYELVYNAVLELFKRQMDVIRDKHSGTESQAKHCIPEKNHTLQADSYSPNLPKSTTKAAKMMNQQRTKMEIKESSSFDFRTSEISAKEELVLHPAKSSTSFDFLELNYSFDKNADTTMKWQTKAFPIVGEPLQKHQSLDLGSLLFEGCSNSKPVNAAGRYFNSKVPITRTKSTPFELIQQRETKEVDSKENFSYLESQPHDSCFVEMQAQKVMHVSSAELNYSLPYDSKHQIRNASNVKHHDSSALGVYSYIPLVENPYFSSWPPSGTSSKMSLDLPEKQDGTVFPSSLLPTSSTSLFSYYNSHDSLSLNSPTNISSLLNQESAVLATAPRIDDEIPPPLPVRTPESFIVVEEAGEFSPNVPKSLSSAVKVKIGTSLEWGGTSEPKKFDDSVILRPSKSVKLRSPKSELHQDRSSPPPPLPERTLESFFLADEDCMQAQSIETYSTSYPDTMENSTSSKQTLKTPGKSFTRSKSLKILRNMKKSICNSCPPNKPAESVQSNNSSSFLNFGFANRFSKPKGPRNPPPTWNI

[7] = biological target: T2, RNA-binding protein pos-1 (Caenorhabditis elegans, UniProt G5EF15); experiment: disruptors of C. elegans POS-1 RNA interaction – biochemical, fluorescence polarization, dose response (AID 1964);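 also: purified POS-1 fused to maltose binding protein made in E. coli; potency of compounds blocking POS-1 binding to fluorescent RNA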
T2 sequence (G5EF15 whole entry): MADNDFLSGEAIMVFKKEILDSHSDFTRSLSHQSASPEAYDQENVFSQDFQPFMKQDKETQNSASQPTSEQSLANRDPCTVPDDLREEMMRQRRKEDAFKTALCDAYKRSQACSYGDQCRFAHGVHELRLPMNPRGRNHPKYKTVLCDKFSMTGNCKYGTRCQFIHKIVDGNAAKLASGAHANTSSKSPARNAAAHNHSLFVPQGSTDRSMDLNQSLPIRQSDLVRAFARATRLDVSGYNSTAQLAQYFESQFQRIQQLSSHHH

[8] = biological target: T3, Zinc finger protein mex-5 (Caenorhabditis elegans, UniProt Q9XUB2); experiment: potency of MEX-5 RNA-binding blockers – biochemical, C. elegans, fluorescence polarization, dose response (AID 1960)
T3 sequence (Q9XUB2 whole entry): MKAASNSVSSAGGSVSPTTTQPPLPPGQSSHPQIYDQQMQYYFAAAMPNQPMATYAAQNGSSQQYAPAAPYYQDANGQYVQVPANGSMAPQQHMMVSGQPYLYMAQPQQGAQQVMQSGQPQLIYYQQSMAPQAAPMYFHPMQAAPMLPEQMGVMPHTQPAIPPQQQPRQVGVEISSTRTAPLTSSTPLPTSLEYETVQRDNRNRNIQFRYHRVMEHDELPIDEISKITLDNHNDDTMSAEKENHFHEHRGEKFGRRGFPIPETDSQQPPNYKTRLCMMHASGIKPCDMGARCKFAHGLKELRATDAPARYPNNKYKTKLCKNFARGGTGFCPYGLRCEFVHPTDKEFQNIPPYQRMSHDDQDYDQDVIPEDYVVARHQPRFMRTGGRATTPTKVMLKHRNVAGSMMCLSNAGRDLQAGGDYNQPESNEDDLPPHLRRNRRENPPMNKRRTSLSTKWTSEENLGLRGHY

[9] = biological target: T4, Sentrin-specific protease 1 (Homo sapiens, UniProt Q9P0U3); experiment: SENP1 catalytic domain blockers, concentration series – biochemical, kinetic FRET, dose response (AID 651697); type: functional; conditions: read-out: IC50_Mean
T4 sequence (Q9P0U3 whole entry, the tested form may be a part): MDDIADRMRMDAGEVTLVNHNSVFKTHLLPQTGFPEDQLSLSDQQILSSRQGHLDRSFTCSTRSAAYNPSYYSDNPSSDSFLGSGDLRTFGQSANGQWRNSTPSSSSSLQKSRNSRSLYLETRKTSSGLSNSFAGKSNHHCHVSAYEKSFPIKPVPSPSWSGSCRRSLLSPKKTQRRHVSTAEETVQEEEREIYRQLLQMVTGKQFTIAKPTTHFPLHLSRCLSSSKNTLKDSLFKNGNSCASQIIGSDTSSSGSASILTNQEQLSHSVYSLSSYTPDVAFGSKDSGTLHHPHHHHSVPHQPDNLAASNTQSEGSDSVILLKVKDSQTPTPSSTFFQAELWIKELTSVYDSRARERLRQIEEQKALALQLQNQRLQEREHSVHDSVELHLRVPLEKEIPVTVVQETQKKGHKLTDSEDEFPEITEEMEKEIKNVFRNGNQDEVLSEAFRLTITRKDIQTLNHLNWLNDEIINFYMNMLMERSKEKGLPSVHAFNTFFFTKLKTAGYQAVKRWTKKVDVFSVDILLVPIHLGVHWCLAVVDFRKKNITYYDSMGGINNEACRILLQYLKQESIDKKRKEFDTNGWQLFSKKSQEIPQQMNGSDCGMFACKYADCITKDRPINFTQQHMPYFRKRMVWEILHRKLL

[10] = biological target: T4, Sentrin-specific protease 1; experiment: Dose response confirmation of small molecule inhibitors of the catalytic domain of the SUMO protease, SENP1 in a FRET assay.; type: functional; conditions: read-out: IC50_Mean
[11] = biological target: T5, Apoptotic protease-activating factor 1 (Homo sapiens, UniProt O14727); experiment: SAR analysis of small molecule Activators of Apaf-1 in a Fluorescent assay.; type: functional; conditions: read-out: EC50_Mean;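 also: caspase-3 cleavage of fluorogenic Rh110 DEVD substrate downstream of apoptosome activation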
T5 sequence (O14727 whole entry): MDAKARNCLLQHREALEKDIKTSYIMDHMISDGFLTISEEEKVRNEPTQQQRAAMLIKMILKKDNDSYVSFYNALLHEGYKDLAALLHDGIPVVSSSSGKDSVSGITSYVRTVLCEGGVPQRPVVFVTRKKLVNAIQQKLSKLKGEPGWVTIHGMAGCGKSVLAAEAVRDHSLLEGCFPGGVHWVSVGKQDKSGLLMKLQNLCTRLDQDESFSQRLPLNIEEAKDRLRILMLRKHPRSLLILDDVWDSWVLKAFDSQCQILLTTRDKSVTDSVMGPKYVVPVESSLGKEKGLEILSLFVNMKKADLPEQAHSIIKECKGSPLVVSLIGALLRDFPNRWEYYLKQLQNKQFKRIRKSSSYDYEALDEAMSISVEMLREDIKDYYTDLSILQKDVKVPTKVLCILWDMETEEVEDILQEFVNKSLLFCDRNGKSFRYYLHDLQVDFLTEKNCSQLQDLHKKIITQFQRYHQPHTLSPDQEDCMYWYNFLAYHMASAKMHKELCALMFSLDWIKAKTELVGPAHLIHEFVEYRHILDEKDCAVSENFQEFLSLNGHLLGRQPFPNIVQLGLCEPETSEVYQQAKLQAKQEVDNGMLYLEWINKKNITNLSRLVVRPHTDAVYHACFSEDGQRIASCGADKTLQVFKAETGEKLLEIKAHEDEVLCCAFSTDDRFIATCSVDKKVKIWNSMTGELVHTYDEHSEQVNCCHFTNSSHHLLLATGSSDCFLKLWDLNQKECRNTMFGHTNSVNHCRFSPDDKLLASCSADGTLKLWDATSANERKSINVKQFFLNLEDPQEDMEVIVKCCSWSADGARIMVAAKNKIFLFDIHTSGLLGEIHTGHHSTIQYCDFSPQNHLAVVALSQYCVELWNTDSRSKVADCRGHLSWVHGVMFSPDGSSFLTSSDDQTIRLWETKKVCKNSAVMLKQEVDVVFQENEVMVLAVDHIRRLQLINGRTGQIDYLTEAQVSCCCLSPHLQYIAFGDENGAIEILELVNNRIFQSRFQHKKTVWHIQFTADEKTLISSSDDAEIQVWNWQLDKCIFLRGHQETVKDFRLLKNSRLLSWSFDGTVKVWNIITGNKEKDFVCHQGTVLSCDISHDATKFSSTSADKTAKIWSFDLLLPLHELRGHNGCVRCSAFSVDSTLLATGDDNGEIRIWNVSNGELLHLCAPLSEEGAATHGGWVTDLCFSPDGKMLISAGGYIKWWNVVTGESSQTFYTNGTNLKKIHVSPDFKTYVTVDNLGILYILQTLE

[12] = TNFa-induced NF-kB reporter signal decrease – HEK293 LMP1 reporter cells, dry powder, set 2, selectivity assay for EBV LMP1 NF-kB inhibitor project, dose response (AID 624369); type: functional
[13] = viability loss in LCL cells – cell-based, plate reader, dry powder, set 2, cytotoxicity control, dose response (AID 624367); type: functional
Paired box protein Pax-8 = Paired box protein Pax-8 (Homo sapiens, UniProt Q06710); experiment: PAX8 transcriptional activity inhibition in RMG-I – RMG-I cells, luciferase, cherry-pick, dose response (AID 687027); type: functional, cell-based;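 also: luciferase reporter driven by Pax8 target thyroperoxidase promoter measured by SteadyGlo luminescence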
Sequence of Paired box protein Pax-8 (Q06710 whole entry): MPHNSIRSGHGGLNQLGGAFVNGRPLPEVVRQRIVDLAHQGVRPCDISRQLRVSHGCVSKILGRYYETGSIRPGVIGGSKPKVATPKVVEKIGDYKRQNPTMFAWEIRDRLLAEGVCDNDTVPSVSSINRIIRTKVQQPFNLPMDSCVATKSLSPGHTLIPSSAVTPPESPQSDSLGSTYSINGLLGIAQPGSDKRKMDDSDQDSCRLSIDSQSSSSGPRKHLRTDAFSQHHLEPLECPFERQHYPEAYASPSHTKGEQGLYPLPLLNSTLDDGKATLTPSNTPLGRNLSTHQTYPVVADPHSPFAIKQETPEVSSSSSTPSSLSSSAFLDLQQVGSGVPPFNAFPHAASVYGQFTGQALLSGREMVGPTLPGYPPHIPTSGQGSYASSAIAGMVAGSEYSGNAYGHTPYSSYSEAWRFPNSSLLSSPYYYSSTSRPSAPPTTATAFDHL

[14] = A2780 cell killing – plate reader, dry powder samples, cytotoxicity control, dose response (AID 743046); type: functional, cell-based

IC50 [1]: 6 µM (active)
SMILES: CCOC(=O)C1=C(C)N=c2s/c(=C\c3ccc(OC(C)=O)c(OCC)c3)c(=O)n2C1/C=C/c1ccccc1 (stereo not given)

IC50 [2]: 0.824 µM (active)
SMILES: CCN(CC)S(=O)(=O)c1ccc(N2CCOCC2)c(NC(=S)NC(=O)c2ccco2)c1

IC50 [3]: 3.25 µM (active)
IC50 [4]: 23.6 µM (inactive)
IC50 [5]: 0.937 µM (active)
IC50 [6]: 45.6 µM (inactive)
SMILES: CN(C)c1ccc(C(=S)N2CCN(Cc3ccccc3)CC2)cc1

EC50 [7]: > 300 µM (not active)
EC50 [8]: > 300 µM (not active)
IC50 [9]: 21.5 µM (inactive)
IC50 [10]: 16.7 µM (active)
SMILES: CC(C)CNC(=O)c1ccc(C2SCC(=O)N2Cc2ccccc2)cc1 (stereo not given)

EC50 [11]: > 100 µM (inactive)
SMILES: O=C(NCCCN1CCOCC1)C1CC(c2ccc(F)cc2)=NO1 (stereo not given)

SMILES: O=C(Nc1ccc(C(F)(F)F)cc1)Nc1ccc2c(c1)[C@H]1C[C@H](CC(=O)N3CCc4ccccc4C3)O[C@H](CO)[C@H]1O2
AbsAC35 [12]: 66.25 µM
AbsAC35 [13]: 42.44 µM
AC50 (Paired box protein Pax-8): 7.26 µM (active)
AC50 [14]: 57.4 µM (active)
